Consider 1 compound from publication PMC2360532, “Somatostatin receptor expression, tumour response, and quality of life in patients with advanced hepatocellular carcinoma treated with long-acting octreotide” (British Journal of Cancer, 2006).

The test system of data set [1] is patients with advanced HCC. Description: Serious adverse events and tolerability. It counts as in vivo, human. Here is the method: The planned duration of treatment was 12 months in the absence of disease progression, unacceptable toxicity, or withdrawal at the patient's or doctor's discretion. An extension phase allowed treatment to continue beyond 12 months on an individual basis at the discretion of the principal investigator.
Subjects were seen monthly for clinical review, blood tests, and administration of the study drug. Response was assessed using the RECIST (response evaluation criteria in solid tumours) criteria ([Therasse et al, 2000]). Radiological assessment was undertaken 3-monthly and any partial or complete responses were confirmed 1 month later.

The conditions of data set [2]: patients who remained on the study for 6 months or more.
Source text: (§1) Blood was also sampled for octreotide pharmacokinetics and assessment of chromogranin A levels before the 4th and 7th doses.
(§2) Samples were taken immediately before the 4th and 7th doses of octreotide (weeks 12 and 24 of treatment). These time points were selected in order to assess trough octreotide plasma concentrations at steady state after three doses and to determine potential octreotide accumulation in this cirrhotic population with more continued dosing. Additional samples were also collected in some cases. […] The lower limit of quantification was 50 pg ml^−1 for a 50 μl plasma sample.
The subject of another data set is HCC. The note with it: ref Kouroumalis et al (1998), cited from earlier work. An excerpt:
High-affinity somatostatin receptors capable of binding octreotide are present in approximately 40% of HCC, and not in adjacent liver. However, the numbers of high-affinity receptors are lower than reported for neuroendocrine tumours ([Reubi et al, 1999]). Somatostatin is a potent inhibitor of several growth factors and angioneogenesis ([Flori ... || Most patients with advanced HCC have a dismal prognosis ([Leung and Johnson, 2001]). However, a treatment that benefits only a subset of patients may still be clinically worthwhile. The very different outcomes in the randomised trials by Kouroumalis and Yuen probably reflect differences in patient selection ([Kouroumalis et al, 1998]; [Yuen et al, 2002]). The Yuen study had subjects with more advanced disease, a higher proportion with viral hepatitis, and a median survival of only 2 months. Our study population was more similar to the Kouroumalis study population (Table 4) and our median survi ...

The conditions of data set [3]: cited from earlier work. An excerpt: Safety is important for people with comorbidities. There is limited information available about the elimination kinetics of octreotide in cirrhosis. […] Since pharmacokinetics may be altered in patients with cirrhosis, it was considered necessary to determine whether liver impairment predisposes to toxicity and ...
A further data set is described as follows: clinical. The conditions noted are these: human, plasma, im, 20 mg.
The mark [4] stands for this setting: short-acting form, ref Jenkins et al (1998).

Source text for clinical: as §1, §2

Turning to `C[C@@H](O)[C@@H]1NC(=O)[C@H](CCCCN)NC(=O)[C@@H](Cc2c[nH]c3ccccc23)NC(=O)[C@H](Cc2ccccc2)NC(=O)[C@@H](NC(=O)[C@H](N)Cc2ccccc2)CSSC[C@@H](C(=O)N[C@H](CO)[C@@H](C)O)NC1=O` [octreotide], the “Serious adverse events attributed to the drug” value in data set [1] (20 mg i.m. every 28 days, advanced HCC) is “No serious adverse events were attributed”. In data set [1] (63 patients), the “Treatment stopped because of adverse effects (cramps), cases” value is given as “one”. The “Accumulation of octreotide in plasma” value in data set [2] is reported as “no evidence of accumulation”. Also, the Median survival in the data set with HCC (short-acting octreotide arm vs 4 months in untreated control, HCC) is 13 months. Moreover, the 12-month survival in the data set with HCC (short-acting octreotide arm vs 13% in untreated control, P=0.002) is given as 56%. For the same compound, the Plasma concentrations in data set [3] (30 mg i.m. dose, six patients with acromegaly (noncirrhotic), ref Stewart et al, 1995) was 1.682 ± 0.174 ng/mL. Also, in data set [3] (setting [4]), the “Clearance in patients with cirrhosis” value is “reduced” and the “Half-life in patients with cirrhosis” value is “prolonged”. Besides, in the data set “clinical”, the level at 2016 h came out at 2.21 ng/mL, the level at 4032 h was 3.38 ng/mL and the level at 6480 h was 3.24 ng/mL.
